Results reported in patent US12022831B2, “Synergistic weed control from applications of aminopyralid and clopyralid” (Dow AgroSciences LLC, priority 2012, dated 2024).
Where a name gives a salt, the structure may show the parent alone.

Tested on: honey mesquite (Prosopis glandulosa), weed bayer PRCJG
Assay: Field trial, post-emergence foliar application, synergistic weed control (canopy control and mortality ratings, Colby's equation)
Format: in vivo
Method: In some embodiments, the damage or injury to the undesired vegetation caused by the compositions and methods disclosed herein is evaluated using a scale from 0% to 100%, when compared with the untreated control vegetation, wherein 0% indicates no damage to the undesired vegetation and 100% indicates complete destruction of the undesired vegetation.
X=effect in percent using (a) aminopyralid or an agriculturally acceptable salt or ester thereof at an application rate a;
Y=effect in percent using (b) clopyralid or an agriculturally acceptable salt or ester thereof at an application rate b;
E=expected effect (in %) of (a)+(b) at application rates a and b.
In Colby's equation, the value E corresponds to the effect (plant damage or injury) that is to be expected if the activity of the individual compounds is additive. If the observed effect is higher than the value E calculated according to the Colby equation, then a synergistic effect is present according to the Colby equation.
Field trials were conducted with applications made to established grassland with naturally occurring weed populations. The target plants were treated with postemergence foliar applications when they reached two to five feet tall. All treatments were applied using a nonrandomized trial design, with three replications per treatment.
[…] Spray solutions were prepared using an appropriate amount of dilution to form a 2 L aqueous spray solution with active ingredients in single and two way combinations. […] The treated plants were honey mesquite (Prosopis glandulosa). The treated plots and control plots were rated blind at various intervals after application. Ratings were based on a scale of 0-100%, wherein 0% indicates no damage to the canopy of the undesired vegetation and 100% indicates complete destruction of the canopy of undesired vegetation. Dead and live plants were counted and the mortality was calculated as a % of the total number of undesired plants per plot.
Colby's equation was used to determine the herbicidal effects expected from the mixtures, as described above. […] The herbicide tank mix combinations tested, application rates and ratios employed, plant species tested, and results are given below.

| SMILES | Mean % weed mortality; Evaluation: % Canopy Control (Aminopyralid TIPA Salt alone 280 gae/ha, 81 days after treatment) [%] | Mean % weed mortality; Evaluation: % Canopy Control (Aminopyralid TIPA Salt alone 280 gae/ha, 82 days after treatment) [%] | Mean % weed mortality; Evaluation: % Mortality (Aminopyralid TIPA Salt alone 280 gae/ha, 385 days after treatment) [%] | Mean % weed mortality; Evaluation: % Mortality (Aminopyralid TIPA Salt alone 280 gae/ha, 386 days after treatment) [%] | Mean % weed mortality; Evaluation: % Canopy Control (Clopyralid MEA Salt alone 560 gae/ha, 82 days after treatment) [%] | Mean % weed mortality; Evaluation: % Mortality (Clopyralid MEA Salt alone 560 gae/ha, 385 days after treatment) [%] | Mean % weed mortality; Evaluation: % Mortality (Clopyralid MEA Salt alone 560 gae/ha, 386 days after treatment) [%] |
| --- | --- | --- | --- | --- | --- | --- | --- |
| Nc1cc(Cl)nc(C(=O)O)c1Cl [Aminopyralid TIPA Salt, 4-amino-3,6-dichloro-2-pyridinecarboxylic acid] | 22.0 | 10.0 | 0 | 14 | – | – | – |
| O=C(O)c1nc(Cl)ccc1Cl [Clopyralid MEA Salt, 3,6-dichloro-2-pyridinecarboxylic acid] | – | – | – | – | 25.0 | 25 | 7 |
